Measured values: patent US20260078130A1, “NAMPT MODULATORS, PREPARATIONS, AND USES THEREOF” (SIRONAX LTD., priority 2022, published 2026)

Legend:
[1] = target: T1, human enzyme NAMPT (full length) (Homo sapiens, UniProt P43490); experiment: NMN fluorescence biochemical assay (stimulation of NMN synthesis by NAMPT); conditions: for EC50: NMN fluorescence assay, purified human NAMPT 100 nM, concentration giving half-maximal activation, read-out: Enzymatic EC50; for Enzymatic Emax: fold change of maximal activation compared to DMSO
T1 construct: human enzyme NAMPT (full length)
T1 sequence (P43490 whole entry): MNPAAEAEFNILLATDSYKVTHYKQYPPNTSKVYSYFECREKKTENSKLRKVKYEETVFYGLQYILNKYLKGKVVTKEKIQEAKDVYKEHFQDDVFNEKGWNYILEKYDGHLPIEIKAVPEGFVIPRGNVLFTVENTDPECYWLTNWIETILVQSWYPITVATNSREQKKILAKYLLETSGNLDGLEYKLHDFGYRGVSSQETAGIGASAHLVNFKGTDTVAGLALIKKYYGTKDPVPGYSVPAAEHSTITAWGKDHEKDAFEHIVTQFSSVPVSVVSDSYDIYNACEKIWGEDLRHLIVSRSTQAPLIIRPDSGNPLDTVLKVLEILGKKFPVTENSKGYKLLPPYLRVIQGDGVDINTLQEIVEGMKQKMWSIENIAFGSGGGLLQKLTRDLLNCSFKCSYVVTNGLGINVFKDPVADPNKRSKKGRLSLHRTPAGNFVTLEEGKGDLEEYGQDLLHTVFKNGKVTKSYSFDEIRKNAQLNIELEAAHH
How it was run: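 Full-length human NAMPT (100 nM) was preincubated 15 min at 37 °C with compound in 50 mM Tris-HCl pH 7.5, 10 mM MgCl2, 2 mM DTT, then reacted 1 h at 37 °C with 50 μM NAM, 100 μM PRPP, 4 mM ATP (stated solution concentrations). NMN was derivatised with acetophenone/KOH then formic acid and read at Ex/Em 382/445 nm; EC50 and Emax (fold over DMSO) reported.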

[2] = test system: endogenous NAMPT in U2OS cells; experiment: Cellular NAD+ modulation assay (NAD/NADH-Glo, U2OS cells); assay type: cell-based; conditions: Homo sapiens, 24 hours incubation, cellular NAD+; for maximal fold induction: read-out: Cellular Emax
How it was run: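 NAD/NADH-Glo luminescence quantified NAD+ after acid treatment (60 °C, 15 min) and neutralization of DTAB lysates. Beforehand, U2OS cells seeded 16 h earlier received compound concentration series for 24 h at 37 °C. Values given as half-maximal activation concentration (EC50) and maximal fold change versus DMSO (Emax).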

Row | Structure (SMILES) | EC50 [1] | Enzymatic Emax [1] | EC50 [2] | maximal fold induction [2]
1 | Cn1ncc(Cl)c1CC1c2ccccc2C(=O)N1C[C@]1(F)C[C@@]2(CNC(=O)O2)C1 (stereo partly drawn) [Compound 487, (2r,4r)-2-((1-((4-chloro-1-methyl-1H-pyrazol-5-yl)methyl)-3-oxoisoindolin-2-yl)methyl)-2-fluoro-5-oxa-7-azaspiro[3.4]octan-6-one] | 0.5 to 5 µM | B (3≥B>2) | < 0.5 µM | > 1.5
2 | O=C1NCC2(CC(CN3C(=O)c4ccccc4C3Cc3c(Cl)nc4ccccn34)C2)O1 (stereo not drawn) [Compound 488, 2-((1-((2-chloroimidazo[1,2-a]pyridin-3-yl)methyl)-3-oxoisoindolin-2-yl)methyl)-5-oxa-7-azaspiro[3.4]octan-6-one] | 0.5 to 5 µM | B (3≥B>2) | < 0.5 µM | > 1.5
3 | Cn1nnc(Cl)c1CC1c2ccccc2C(=O)N1CC1CC2(CNC(=O)O2)C1 (stereo not drawn) [Compound 489, 2-((1-((4-chloro-1-methyl-1H-1,2,3-triazol-5-yl)methyl)-3-oxoisoindolin-2-yl)methyl)-5-oxa-7-azaspiro[3.4]octan-6-one] | 0.5 to 5 µM | B (3≥B>2) | 0.5 to 5 µM | > 1.5
4 | Cn1ncc(Cl)c1CC1c2ccccc2C(=O)N1CC1CC2(CNC(=S)O2)C1 (stereo not drawn) [Compound 490, 3-((4-chloro-1-methyl-1H-pyrazol-5-yl)methyl)-2-((6-thioxo-5-oxa-7-azaspiro[3.4]octan-2-yl)methyl)isoindolin-1-one] | 0.5 to 5 µM | B (3≥B>2) | 0.5 to 5 µM | > 1.5
5 | Cc1ncnc(C#N)c1CC1c2ccccc2C(=O)N1CC1CC2(CNC(=O)O2)C1 (stereo not drawn) [Compound 491, 6-methyl-5-((3-oxo-2-((6-oxo-5-oxa-7-azaspiro[3.4]octan-2-yl)methyl)isoindolin-1-yl)methyl)pyrimidine-4-carbonitrile] | 0.5 to 5 µM | B (3≥B>2) | < 0.5 µM | > 1.5
6 | Cc1ccc(=O)n(C)c1CC1c2ccccc2C(=O)N1CC1CC2(CNC(=O)O2)C1 (stereo not drawn) [Compound 493, 2-((1-((1,3-dimethyl-6-oxo-1,6-dihydropyridin-2-yl)methyl)-3-oxoisoindolin-2-yl)methyl)-5-oxa-7-azaspiro[3.4]octan-6-one] | 0.5 to 5 µM | B (3≥B>2) | 0.5 to 5 µM | > 1.5
7 | Cn1nc(C#N)c(Cl)c1CC1c2ccccc2C(=O)N1CC1CC2(CNC(=O)O2)C1 (stereo not drawn) [Compound 495, 4-chloro-1-methyl-5-((3-oxo-2-((6-oxo-5-oxa-7-azaspiro[3.4]octan-2-yl)methyl)isoindolin-1-yl)methyl)-1H-pyrazole-3-carbonitrile] | 0.5 to 5 µM | B (3≥B>2) | < 0.5 µM | > 1.5
8 | Cn1ncc(Cl)c1CC1c2c(F)cccc2C(=O)N1CC1CC2(CNC(=O)O2)C1 (stereo not drawn) [Compound 511, 2-((3-((4-chloro-1-methyl-1H-pyrazol-5-yl)methyl)-4-fluoro-1-oxoisoindolin-2-yl)methyl)-5-oxa-7-azaspiro[3.4]octan-6-one] | 0.5 to 5 µM | A (A>3) | < 0.5 µM | 1.2 to 1.5

Second part, led by results:

Row | EC50 [1] | Enzymatic Emax [1] | EC50 [2] | Structure (SMILES) | maximal fold induction [2]
9 | 0.5 to 5 µM | B (3≥B>2) | 0.5 to 5 µM | Cc1ccn(C)c(=O)c1CC1c2ccccc2C(=O)N1CC1CC2(CNC(=O)O2)C1 (stereo not drawn) [Compound 481, 2-((1-((1,4-dimethyl-2-oxo-1,2-dihydropyridin-3-yl)methyl)-3-oxoisoindolin-2-yl)methyl)-5-oxa-7-azaspiro[3.4]octan-6-one] | > 1.5
10 | < 0.5 µM | B (3≥B>2) | < 0.5 µM | Cn1ncc(Cl)c1CC1c2ccccc2C(=S)N1CC1CC2(CNC(=O)O2)C1 (stereo not drawn) [Compound 482, 2-((1-((4-chloro-1-methyl-1H-pyrazol-5-yl)methyl)-3-thioxoisoindolin-2-yl)methyl)-5-oxa-7-azaspiro[3.4]octan-6-one] | > 1.5
11 | 0.5 to 5 µM | B (3≥B>2) | < 0.5 µM | Cn1ncc(Cl)c1CC1c2ccccc2C(=O)N1C[C@H]1C[C@@]2(CNC(=O)O2)C1 (stereo partly drawn) [Compound 483, (2r,4r)-2-((1-((4-chloro-1-methyl-1H-pyrazol-5-yl)methyl)-3-oxoisoindolin-2-yl)methyl)-5-oxa-7-azaspiro[3.4]octan-6-one] | 1.2 to 1.5
12 | 0.5 to 5 µM | B (3≥B>2) | < 0.5 µM | CN1CCn2c(cc(Cl)c2CC2c3ccccc3C(=O)N2CC2CC3(CNC(=O)O3)C2)C1 (stereo not drawn) [Compound 484, 2-((1-((7-chloro-2-methyl-1,2,3,4-tetrahydropyrrolo[1,2-a]pyrazin-6-yl)methyl)-3-oxoisoindolin-2-yl)methyl)-5-oxa-7-azaspiro[3.4]octan-6-one] | 1.2 to 1.5
13 | 0.5 to 5 µM | B (3≥B>2) | < 0.5 µM | Cc1ccc2c(c1)C(Cc1c(Cl)cnn1C)N(CC1CC3(CNC(=O)O3)C1)C2=O (stereo not drawn) [Compound 485, 2-((3-((4-chloro-1-methyl-1H-pyrazol-5-yl)methyl)-5-methyl-1-oxoisoindolin-2-yl)methyl)-5-oxa-7-azaspiro[3.4]octan-6-one] | > 1.5
14 | 0.5 to 5 µM | B (3≥B>2) | < 0.5 µM | Cn1ncc(Cl)c1CC1c2cc(F)ccc2C(=O)N1CC1CC2(CNC(=O)O2)C1 (stereo not drawn) [Compound 486, 2-((3-((4-chloro-1-methyl-1H-pyrazol-5-yl)methyl)-5-fluoro-1-oxoisoindolin-2-yl)methyl)-5-oxa-7-azaspiro[3.4]octan-6-one] | > 1.5
15 | < 0.5 µM | B (3≥B>2) | < 0.5 µM | Cc1cncc(C#N)c1CC1c2ccccc2C(=O)N1CC1CC2(CNC(=O)O2)C1 (stereo not drawn) [Compound 492, 5-methyl-4-((3-oxo-2-((6-oxo-5-oxa-7-azaspiro[3.4]octan-2-yl)methyl)isoindolin-1-yl)methyl)nicotinonitrile] | > 1.5
16 | < 0.5 µM | B (3≥B>2) | 0.5 to 5 µM | Cn1nc(CN2CCC2)c(Cl)c1CC1c2ccccc2C(=O)N1CC1CC2(CNC(=O)O2)C1 (stereo not drawn) [Compound 508, 2-((1-((3-(azetidin-1-ylmethyl)-4-chloro-1-methyl-1H-pyrazol-5-yl)methyl)-3-oxoisoindolin-2-yl)methyl)-5-oxa-7-azaspiro[3.4]octan-6-one] | > 1.5
17 | < 0.5 µM | A (A>3) | 0.5 to 5 µM | CN1CC(c2nn(C)c(CC3c4ccccc4C(=O)N3CC3CC4(CNC(=O)O4)C3)c2Cl)C1 (stereo not drawn) [Compound 509, 2-((1-((4-chloro-1-methyl-3-(1-methylazetidin-3-yl)-1H-pyrazol-5-yl)methyl)-3-oxoisoindolin-2-yl)methyl)-5-oxa-7-azaspiro[3.4]octan-6-one] | > 1.5
18 | < 0.5 µM | A (A>3) | < 0.5 µM | Cn1ncc(Cl)c1CC1c2cc(Cl)cc(F)c2C(=O)N1CC1CC2(CNC(=O)O2)C1 (stereo not drawn) [Compound 510, 2-((6-chloro-1-((4-chloro-1-methyl-1H-pyrazol-5-yl)methyl)-4-fluoro-3-oxoisoindolin-2-yl)methyl)-5-oxa-7-azaspiro[3.4]octan-6-one] | > 1.5
